{"source": "patent US20250134902A1", "about": "“DRUG REPURPOSING FOR DELAYED TREATMENT OF ISCHEMIC STROKE” (UNIVESRITY OF NORTH TEXAS HEALTH SCIENCE CENTER, priority 2022, published 2025)", "key": {"[1]": {"target": "T1, human Sigma-1 receptor (S1R) (Homo sapiens, UniProt Q99720)", "T1 construct": "expressed in transfected cells", "T1 sequence (Q99720 whole entry)": "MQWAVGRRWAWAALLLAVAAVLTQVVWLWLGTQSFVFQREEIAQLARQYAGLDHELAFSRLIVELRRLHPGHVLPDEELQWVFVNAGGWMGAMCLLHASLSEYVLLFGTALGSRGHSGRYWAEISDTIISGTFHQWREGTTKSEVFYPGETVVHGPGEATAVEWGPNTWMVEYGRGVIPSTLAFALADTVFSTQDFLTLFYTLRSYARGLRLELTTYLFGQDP", "assay": "Radioligand competition binding at Sigma-1 receptor ([3H]-(+)-pentazocine, MCF-7-hS1R)", "description": "Measuring receptor density with radioligand binding.\nMeasuring the ligand affinities at SIR and S2R receptors by radioligand binding. […] Binding conditions were the same as described previously for the S1R (Schetz, et al., 2007): binding buffer (Tris 50 mM, pH=8.1 at 37° C.), ice-cold wash buffer (Tris 10 mM, pH=8.1 at 0-2° C.), and incubation time (3 hrs at 37° C.) with shaking. Non-specific binding for the S1R and S2R was determined in the presence of 5 μM BD1063 and […] haloperidol, respectively. Following incubation, receptors were collected via rapid filtration through GF/C filters (Brandel, Gaithersburg, MD) followed by washing three times with 3 mL of ice-cold wash buffer. Dried filters were transferred to vials filled with 3.5 ml of scintillation fluid, and the radioactivity was quantified on a liquid scintillation analyzer (TRICARB® 2800TR) from Perkin Elmer (Saint Louis, MO). Mean values from duplicate or triplicate determinations are reported along with their associated standard error of the mean (SEM). Ki values were calculated from IC50 values using the Cheng-Prusoff equation. The concentration of membrane protein was determined using a PIERCE® BCA Protein Assay kit (Life Technologies, Grand Island, NY) following the manufacturer's protocol.\nReferring to FIG. 1, the selectivity of potential S1R ligands over S2R was empirically evaluated. Human MCF-7 cells were used as the source of the S2R because these cells express the endogenous S2R (Vilner, John, et al., 1995; Wu & Bowen, 2008) but lack detectable levels of the S1R, allowing unambiguous detection of S2R activity in untransfected cells (Schetz, et al., 2007). MCF-7 cells stably expressing the cloned human S1R were used as the source of S1R."}, "[2]": {"test_system": "rat blood", "assay": "Clotting (streak) assay of thrombotic potential", "description": "Clotting assays. Thrombotic potential was assessed with trunk blood from donor rats using a protocol modified from Kim et al. (Kim et al., 2010). Oxeladin was compared to whole blood with or without the anticoagulant benzamidine and several other S1R ligands at doses 10× greater than those that stimulate the release of BDNF (Dalwadi et al., 2022; Dalwadi et al., 2017). Blood was rapidly collected into chilled, pre-weighed plastic tubes containing a known quality of EDTA disodium salt (>3.7 mM) electrostatically-coated onto the tube wall. Blood was prevented from coagulating by gently swirling the chilled EDTA-coated tube. The tube was weighed and the volume of collected blood calculated in order to compute the exact concentration of EDTA in the uncoagulated blood sample allowing us to determine which concentration of calcium to add back into the blood to initiate coagulation. Uncoagulated blood samples were stored chilled. The following was be dispensed into NUNC™ MICROWELL™ MiniTrays: 8 μL/well of normal saline containing a concentration of calcium 1.2 mM higher than that of the concentration of EDTA in the blood sample, 1 μL/well of oxeladin, 3 mM benzamidine anticoagulant positive control, or untreated or vehicle negative controls, and 1 μL/well of (EDTA-treated) uncoagulated rat blood. Plates were tilted at a 45° angle at 5, 15, 30, 45 and 60 minutes to observe coagulation (i.e., no streaking) and compared to the controls. Each triplicate well was scored by a treatment-blinded observer as Yes (coagulation, no streaking) or No (no coagulation, streaking). The experiment was repeated with two separate donor rats.\nReferring to FIG. 5, the effect on thrombotic activity of test drugs, benzamidine anticoagulant positive control, or untreated or vehicle negative controls on whole blood from donor rats was assessed by tilting treated blood samples at a […] to observe coagulation (i.e., no streaking) between […] (top panel). Blood coagulation was represented by a value between 1 (no streaking, coagulation) and 0 (streaking, less or no coagulation), and values were assigned for each test drug, benzamidine, and untreated and vehicle controls (bottom panel). Quantitative results from these clotting assays, including coagulation half-life, are summarized below in Table 5."}, "[3]": {"test_system": "BDNF", "assay": "Steady-state BDNF in brain homogenates by ELISA (rats of the maximum tolerated dose study)", "assay_type": "in vivo, rat", "settings": "135 mg/kg p.o., ten days", "description": "Actions of oxeladin on BDNF in the brain. […] Cerebral cortex and hippocampal samples were homogenized in TBS supplemented with 0.1% NP-40 detergent and protease inhibitor cocktail. Protein concentrations were determined with a PIERCE® BCA assay (ThermoPierce). Samples were diluted 1:20 and assayed in triplicate according to manufacturer's instructions and assayed a FLEXSTATION® 3 plate reader (Molecular Devices, Sunnyvale, CA)."}, "[4]": {"settings": "source not stated; cited from earlier work"}}, "note": "Entries after “also recorded” stand apart in the source; their conditions may differ."}
{"compound": "CCN(CC)CCOCCOC(=O)C(CC)(CC)c1ccccc1", "note": "[Oxeladin]", "values": [{"measurement": "selective for S1R over S2R", "setting": "[1]", "result": 9, "unit": "fold"}, {"measurement": "Ki", "setting": "[1]; displacement of 0.5 nM [3H]-(+)-pentazocine, MCF-7 cells expressing human S1R, average of 2-3 experiments ± SEM, read-out: S1R affinity (Ki)", "result": "25 ± 4.3", "unit": "nM"}, {"measurement": "S2R/S1R ratio (Ki S2R/Ki S1R)", "setting": "[1]; selectivity for S1R over S2R", "result": 6}, {"measurement": "effect on thrombosis in blood", "setting": "[2]", "result": "do not alter thrombosis"}, {"measurement": "BDNF levels in the hippocampus (ELISA)", "setting": "[3]", "result": "not in the hippocampus"}, {"measurement": "BDNF levels in the cerebral cortex (ELISA)", "setting": "[3]; P<0.05", "result": "significant increase; also recorded: significantly increase"}, {"measurement": "LogP", "setting": "[4]", "result": 4.43}]}
